# In patent US11865126B2, “Method for treating anxiety disorders, headache disorders, and eating disorders with psilocybin” (priority 2019, dated 2024):
# System: healthy subjects
# Experiment: Phase 1 healthy volunteer study, single oral dose: treatment-emergent adverse events
# Type: in vivo, human
# Procedure: A Phase 1 randomized, double-blind, placebo-controlled study to evaluate the effect of psilocybin on cognitive and emotional processing as compared to placebo in healthy volunteers was conducted. The study investigated the short-term (Day 7) and long-term (Day 28) effects of moderate (10 mg) and high doses (25 mg) of psilocybin on key domains of cognition, such as episodic memory, attention, working and spatial memory, social cognition and elements of executive function, including cognitive flexibility.
# 90 healthy subjects were studied. Approximately 50% of the subjects were psilocybin-naïve. For subjects with prior psilocybin experience, the last exposure was at least 1 year prior to the signing of the Informed Consent Form (ICF). Approximately 50% of the subjects were female. Subjects were stratified by sex and age (18-35 years old; >35 years old).
# Each subject was assigned 1 treatment bottle containing 5 capsules packaged in a double-blind fashion, depending on the randomized treatment arm, the bottle contained one of the following: • a. Psilocybin 10 mg: 2×5-mg oral psilocybin capsules plus 3× placebo capsules • b. Psilocybin 25 mg: 5×5-mg oral psilocybin capsules • c. Placebo: 5× placebo capsules
# Each 5-mg oral psilocybin capsule comprised 5 mg crystalline psilocybin in the form of Polymorph A, 12.5 mg of SMCC 50, 79.5 mg of SMCC 90, 1 mg sodium starch glycolate, 1 mg colloidal silicon dioxide, and 1 mg sodium stearyl fumarate
# Adverse events: Throughout the course of the study, all AEs were monitored and recorded. Each AE was classified according to the following criteria: • i. […] Moderate: The AE produces some impairment of functioning, but is not hazardous to the subject's health. • iii. Severe: The AE produces significant impairment of functioning or incapacitation and is a definite hazard to the subject's health.
# Selected Adverse Events of included: • (a) Euphoric mood • (b) Dissociative disorder • (c) Hallucination • (d) Psychotic disorder • (e) Cognitive disorder • (f) Disturbance in attention • (g) Altered mood • (h) Impairment of psychomotor skills • (i) Inappropriate affect • (j) Overdose • (k) Intentional product misuse • (l) Illusion
# For example, drug-induced hepatitis that resolved without evidence of hepatic failure would not be considered life threatening even though drug-induced hepatitis can be fatal. • (c) Inpatient hospitalization or prolongation of existing hospitalization. • (d) Persistent or significant disability/incapacity. • (e) Congenital anomaly/birth defect in the offspring of a subject who received psilocybin. • (f) Other: Important medical events that may not result in death, be life-threatening, or require hospitalization, may be considered an SAE when, based upon appropriate medical judgment, they may jeopardize the subject and may require medical or surgical intervention to prevent one of the outcomes listed in this definition. […] Visits:
# Visit 3 (V3): Drug Administration (Day 0): The subject was asked to eat a light breakfast at least two hours prior to coming to the clinic for study drug administration. On Day 0 (V3), the subject underwent the SSTS, had vital signs obtained, medications reviewed, AEs recorded and eligibility reviewed prior to being randomized to study drug. The study drug was administered to up to six subjects simultaneously in individual beds separated by a curtain. The subject was invited to put on eyeshades and headphones, lie down and listen to calming music for the rest of the session (six hours). The subject was supported 1:1 with a chaperone and supervised by the study psychiatrist and lead therapist.
# Recording of adverse events and prior/concomitant medication was performed at each visit.
# During administration of psilocybin, each subject received one on one support from a trained assisting therapist and each dosing session was supervised by a study psychiatrist and a lead therapist. […]
structure (smiles),measurement,setting,value
CN(C)CCc1c[nH]c2cccc(OP(=O)(O)O)c12 [psilocybin],"Nervous system disorders, worst severity Moderate: Events",25 mg,10
same,"Nervous system disorders, worst severity Severe: Events",25 mg,1
same,Nervous system disorders: Events,25 mg,43
same,"Paraesthesia, worst severity Mild: Events",25 mg,3
same,"Paraesthesia, worst severity Mild: N (%)",25 mg,3 (10.0)
same,"Paraesthesia, worst severity Moderate: Events",25 mg,1
same,"Paraesthesia, worst severity Severe: Events",25 mg,0
same,"Paraesthesia, worst severity Severe: N (%)",25 mg,0
same,Paraesthesia: Events,25 mg,4
same,"Psychiatric disorders, worst severity Mild: Events",25 mg,5
same,"Psychiatric disorders, worst severity Moderate: Events",25 mg,45
same,"Psychiatric disorders, worst severity Severe: Events",25 mg,27
same,"Psychiatric disorders, worst severity Severe: N (%)",25 mg,9 (30.0)
same,"Respiratory, thoracic and mediastinal disorders: Events",25 mg,3
same,"Respiratory, thoracic and mediastinal disorders: N (%)",25 mg,3 (10.0)
same,"Somatic hallucination, worst severity Mild: Events",25 mg,2
same,"Somatic hallucination, worst severity Moderate: Events",25 mg,2
same,"Somatic hallucination, worst severity Severe: Events",25 mg,2
same,Somatic hallucination: Events,25 mg,6
same,"Tension headache, worst severity Mild: Events",25 mg,4
same,"Tension headache, worst severity Moderate: Events",25 mg,2
same,"Tension headache, worst severity Severe: Events",25 mg,0
same,"Tension headache, worst severity Severe: N (%)",25 mg,0
same,Tension headache: Events,25 mg,6
same,Tension headache: N (%),25 mg,6 (20.0)
same,"Time perception altered, worst severity Mild: Events",25 mg,2
same,"Time perception altered, worst severity Moderate: Events",25 mg,4
same,"Time perception altered, worst severity Severe: Events",25 mg,0
same,"Time perception altered, worst severity Severe: N (%)",25 mg,0
same,Time perception altered: Events,25 mg,6
same,Time perception altered: N (%),25 mg,6 (20.0)
same,Reported 'Mood altered' events: Being less judgmental,25 mg psilocybin (n = 30),0
same,Reported 'Mood altered' events: Calm,25 mg psilocybin (n = 30),0
same,Reported 'Mood altered' events: Clarity of thought,25 mg psilocybin (n = 30),1
same,Reported 'Mood altered' events: Contemplative state,25 mg psilocybin (n = 30),1
same,Reported 'Mood altered' events: Feeling more moody/sensitive,25 mg psilocybin (n = 30),0
same,Reported 'Mood altered' events: Feeling of adrenaline release,25 mg psilocybin (n = 30),0
same,Reported 'Mood altered' events: Feeling rested,25 mg psilocybin (n = 30),0
same,Reported 'Mood altered' events: Increased compassion,25 mg psilocybin (n = 30),1
same,Reported 'Mood altered' events: Increased creativity,25 mg psilocybin (n = 30),1
same,Reported 'Mood altered' events: Increased empathy,25 mg psilocybin (n = 30),2
same,Reported 'Mood altered' events: Increased sense of connectedness,25 mg psilocybin (n = 30),1
same,Reported 'Mood altered' events: Increased wit,25 mg psilocybin (n = 30),0
same,Reported 'Mood altered' events: Introspection,25 mg psilocybin (n = 30),8
same,Reported 'Mood altered' events: Laughter,25 mg psilocybin (n = 30),1
same,Reported 'Mood altered' events: More socially upbeat,25 mg psilocybin (n = 30),1
same,Reported 'Mood altered' events: Negative mood,25 mg psilocybin (n = 30),0
same,Reported 'Mood altered' events: Reflections,25 mg psilocybin (n = 30),4
same,Reported 'Mood altered' events: Saw themselves from a new perspective,25 mg psilocybin (n = 30),1
same,Reported 'Mood altered' events: Sense of oneness,25 mg psilocybin (n = 30),2
same,Reported 'Mood altered' events: Sense of openness,25 mg psilocybin (n = 30),0
same,Reported 'Mood altered' events: Unusual appreciation of music,25 mg psilocybin (n = 30),0
same,Any TEAE: % of subjects,"25 mg, listed as Psilocybin",(96.7) %
same,"Affect lability, Events",Psilocybin 10 mg (N = 30),5
same,"Change in sustained attention, Events",Psilocybin 10 mg (N = 30),2
same,"Depressed mood, Events",Psilocybin 10 mg (N = 30),1
same,"Dissociative identity disorder, Events",Psilocybin 10 mg (N = 30),2
same,"Euphoric mood, Events",Psilocybin 10 mg (N = 30),7
same,"Hallucination, Events",Psilocybin 10 mg (N = 30),3
same,"Hallucination, N (%)",Psilocybin 10 mg (N = 30),3 (10.0)
same,"Hallucination, auditory, Events",Psilocybin 10 mg (N = 30),4
same,"Hallucination, gustatory, Events",Psilocybin 10 mg (N = 30),1
same,"Hallucination, olfactory, Events",Psilocybin 10 mg (N = 30),1
same,"Hallucination, tactile, Events",Psilocybin 10 mg (N = 30),2
same,"Hallucination, visual, Events",Psilocybin 10 mg (N = 30),20
same,"Illusion, Events",Psilocybin 10 mg (N = 30),25
same,"Memory impairment, Events",Psilocybin 10 mg (N = 30),1
same,"Mood altered, Events",Psilocybin 10 mg (N = 30),23
same,"Nervous system disorders, Events",Psilocybin 10 mg (N = 30),2
same,"Nervous system disorders, N (%)",Psilocybin 10 mg (N = 30),2 (6.7)
same,"Psychiatric disorders, Events",Psilocybin 10 mg (N = 30),104
same,"Psychomotor skills impaired, Events",Psilocybin 10 mg (N = 30),1
same,"Selected TEAE (any), Events",Psilocybin 10 mg (N = 30),106
same,"Selected TEAE (any), N (%)",Psilocybin 10 mg (N = 30),27 (90.0)
same,"Somatic hallucination, Events",Psilocybin 10 mg (N = 30),8
same,"Substance-induced psychotic disorder, Events",Psilocybin 10 mg (N = 30),0
same,"Substance-induced psychotic disorder, N (%)",Psilocybin 10 mg (N = 30),0
same,"Affect lability, Events",Psilocybin 25 mg (N = 30),3
same,"Affect lability, N (%)",Psilocybin 25 mg (N = 30),3 (10.0)
same,"Change in sustained attention, Events",Psilocybin 25 mg (N = 30),0
same,"Change in sustained attention, N (%)",Psilocybin 25 mg (N = 30),0
same,"Depressed mood, Events",Psilocybin 25 mg (N = 30),2
same,"Dissociative identity disorder, Events",Psilocybin 25 mg (N = 30),2
same,"Euphoric mood, Events",Psilocybin 25 mg (N = 30),8
same,"Hallucination, Events",Psilocybin 25 mg (N = 30),2
same,"Hallucination, auditory, Events",Psilocybin 25 mg (N = 30),4
same,"Hallucination, gustatory, Events",Psilocybin 25 mg (N = 30),0
same,"Hallucination, gustatory, N (%)",Psilocybin 25 mg (N = 30),0
same,"Hallucination, olfactory, Events",Psilocybin 25 mg (N = 30),1
same,"Hallucination, tactile, Events",Psilocybin 25 mg (N = 30),4
same,"Hallucination, visual, Events",Psilocybin 25 mg (N = 30),22
same,"Illusion, Events",Psilocybin 25 mg (N = 30),26
same,"Memory impairment, Events",Psilocybin 25 mg (N = 30),0
same,"Memory impairment, N (%)",Psilocybin 25 mg (N = 30),0
same,"Mood altered, Events",Psilocybin 25 mg (N = 30),25
same,"Nervous system disorders, Events",Psilocybin 25 mg (N = 30),0
same,"Nervous system disorders, N (%)",Psilocybin 25 mg (N = 30),0
same,"Psychiatric disorders, Events",Psilocybin 25 mg (N = 30),106
same,"Psychomotor skills impaired, Events",Psilocybin 25 mg (N = 30),0
same,"Psychomotor skills impaired, N (%)",Psilocybin 25 mg (N = 30),0
same,"Selected TEAE (any), Events",Psilocybin 25 mg (N = 30),106
same,"Selected TEAE (any), N (%)",Psilocybin 25 mg (N = 30),27 (90.0)
same,"Somatic hallucination, Events",Psilocybin 25 mg (N = 30),6
same,"Substance-induced psychotic disorder, Events",Psilocybin 25 mg (N = 30),1
